From the supplement of paper PMC10307832

What was measured:
Test in all cases: relative viability (nuclei count vs DMSO), 5 days (fraction); higher = more cells survive
Mirin + Alpelisib = compound: N=C1NC(=O)/C(=C/c2ccc(O)cc2)S1 [Mirin] + Cc1nc(NC(=O)N2CCC[C@H]2C(N)=O)sc1-c1ccnc(C(C)(C)C(F)(F)F)c1 [Alpelisib] (partner 2 µM)
In short: (§1)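 Relative viability divides the nuclei count in treated wells by that in vehicle wells. Lung cancer cell lines were seeded in 1536-well plates, dosed by pin tool the next day, and fixed and stained after 5 days in one step with final 0.05% Triton X-100, 1% formaldehyde and 1 ug/ml Hoechst. Dosing was a single drug or a fixed anchor-drug dose plus five library-drug doses (not always all listed) in √10 steps, and values are medians of duplicate plates imaged at 4×.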

Mirin + Decitabine = compound: N=C1NC(=O)/C(=C/c2ccc(O)cc2)S1 [Mirin] + Nc1ncn([C@H]2C[C@H](O)[C@@H](CO)O2)c(=O)n1 [Decitabine] (partner 2 µM)
In short: as §1

Mirin + Palbociclib = compound: N=C1NC(=O)/C(=C/c2ccc(O)cc2)S1 [Mirin] + CC(=O)c1c(C)c2cnc(Nc3ccc(N4CCNCC4)cn3)nc2n(C2CCCC2)c1=O [Palbociclib] (partner 0.5 µM)
In short: as §1

[1] = compound: CCn1c(-c2nonc2N)nc2cnc(Oc3cccc(NC(=O)c4ccc(OCCN5CCOCC5)cc4)c3)cc21 + Cc1cc(Nc2cc(N3CCN(C)CC3)nc(Sc3ccc(NC(=O)C4CC4)cc3)n2)n[nH]1 [Tozasertib] (partner 0.1 µM)
In short: as §1

Cell Line | relative viability (Mirin + Alpelisib; first compound 0.25 µM) | relative viability (Mirin + Alpelisib; first compound 0.7906 µM) | relative viability (Mirin + Alpelisib; first compound 2.5 µM) | relative viability (Mirin + Alpelisib; first compound 7.906 µM) | relative viability (Mirin + Alpelisib; first compound 25 µM) | relative viability (Mirin + Decitabine; first compound 0.25 µM) | relative viability (Mirin + Decitabine; first compound 0.7906 µM) | relative viability (Mirin + Decitabine; first compound 2.5 µM) | relative viability (Mirin + Decitabine; first compound 7.906 µM) | relative viability (Mirin + Decitabine; first compound 25 µM) | relative viability (Mirin + Palbociclib; first compound 0.25 µM) | relative viability (Mirin + Palbociclib; first compound 0.7906 µM) | relative viability (Mirin + Palbociclib; first compound 2.5 µM) | relative viability (Mirin + Palbociclib; first compound 7.906 µM) | relative viability (Mirin + Palbociclib; first compound 25 µM) | relative viability ([1]; first compound 0.04 µM) | relative viability ([1]; first compound 0.1265 µM) | relative viability ([1]; first compound 0.4 µM) | relative viability ([1]; first compound 1.265 µM) | relative viability ([1]; first compound 4 µM)
A549 | 0.635 | 0.719 | 0.58 | 0.58 | 0.733 | 0.311 | 0.298 | 0.278 | 0.305 | 0.301 | – | – | – | – | – | – | – | – | – | –
NCI-H1975 | 0.626 | 0.631 | 0.618 | 0.714 | 0.572 | 0.427 | 0.329 | 0.402 | 0.36 | 0.401 | 0.7 | 0.57 | 0.555 | 0.606 | 0.583 | 0.661 | 0.549 | 0.491 | 0.121 | 0.0969
Calu-6 | 0.922 | 1.07 | 1.02 | 0.831 | 0.769 | – | – | – | – | – | – | – | – | – | – | – | – | – | – | –
NCI-H1648 | – | – | – | – | – | 0.559 | – | 0.51 | 0.525 | 0.418 | 0.328 | – | 0.304 | 0.265 | 0.224 | 0.415 | 0.833 | 0.88 | 0.713 | 0.547
NCI-H1623 | – | – | – | – | – | – | – | – | – | – | – | – | – | – | – | 0.473 | 0.396 | 0.369 | 0.346 | 0.457
NCI-H322M | 0.783 | 0.844 | 0.734 | 0.829 | 0.844 | 0.674 | 0.712 | 0.725 | 0.705 | 0.614 | 0.466 | 0.497 | 0.521 | 0.553 | 0.522 | 0.481 | 0.466 | 0.459 | 0.366 | 0.403
NCI-H2405 | 0.762 | 0.774 | 0.781 | 0.727 | 0.622 | 0.72 | – | 0.691 | 0.725 | 0.708 | 0.512 | – | 0.526 | 0.568 | 0.511 | 0.874 | 0.794 | 0.345 | 0.224 | 0.24
HCC-44 | 0.852 | 0.879 | 0.806 | 0.762 | 0.705 | 0.938 | 0.958 | 0.99 | 0.922 | 1.01 | 1 | 1.1 | 0.91 | 0.975 | 1.15 | 0.841 | 0.146 | 0.373 | 0.225 | 0.188
HCC-78 | 0.389 | 0.393 | 0.366 | 0.291 | 0.298 | 0.514 | 0.764 | 0.698 | 0.565 | 0.657 | 0.536 | 0.41 | 0.453 | 0.505 | 0.381 | 0.589 | – | – | 0.532 | 0.519
